Experiments:
[1] = Cooling crystallization, XRPD before and after AAC; format: physicochemical
Procedure: Cooling crystallizations were performed by preparing clear solutions of CBD with a maximum concentration of approximately 60 mg/mL. The solutions were slowly cooled to 0° C. and kept at this temperature for 48 hours. Precipitated solids were collected, dried under ambient conditions, and analyzed by XRPD. If no solids had precipitated, the mother liquors were allowed to slowly evaporate and the remaining solids were analyzed by XRPD. All solids were exposed to accelerated aging conditions for 48 hours and analyzed again by XRPD. Cannabidiol precipitated upon cooling from pentane and heptane. […] When no XRPD record was generated, the field is defined as “Not Applicable” (N/A).

[2] = Solubility of CBD in crude CBD mother liquor and heptane as a function of temperature (Crystal 16); details: CBD concentration of ca. 296 mg/ml (3.5 L/kg), crude CBD mother liquor
From the text: To determine an appropriate seeding temperature of CBD, a Crystal 16 instrument was employed to measure the solubility in crude CBD mother liquor, a mixture of heptane and process impurities, and pure heptane.

[3] = Vapor-diffusion-into-solution crystallization, solid form after evaporation; format: physicochemical
From the text: The open vials were placed in a larger container with anti-solvent and the vapors were allowed to diffuse into the cannabidiol solution for two weeks. The effect of the anti-solvent, however, was too low to induce any precipitation of cannabidiol and, therefore, it was decided to evaporate the mother liquors and analyze the remaining solids. Crystalline solid was only found after evaporation of the Toluene/2,2,4-Trimethylepentane solution.

[4] = Liquid diffusion crystallization, solid form by HT-XRPD; format: physicochemical
Procedure: A solution of cannabidiol of about 75 mg/mL was prepared and a layer of anti-solvent was carefully added to the vial. These experiments were performed with water as anti-solvent because of the larger difference in density between solvent and anti-solvent.

[5] = Stress stability tests of CBD (acidic, alkaline, oxidative, light, heat, humidity; UPLC, LC-MS, PDA-UV); format: physicochemical
Procedure: Cannabidiol samples obtained by Protocol 1 were subjected to acidic, alkaline, and oxidizing conditions in order to achieve a degradation of at least 3% or a change in appearance. The impact of light, heat, and humidity on the stability of the drug substance was investigated. The assay and purity of samples were analyzed by UPLC. The identity of unknown impurities was examined by LC-MS. The peak purity of cannabidiol after exposure to stress conditions was investigated by comparing the PDA-UV spectrum (photodiode array-ultraviolet) of cannabidiol with the spectrum of the unstressed sample and in addition by LC-MS analysis of the cannabidiol peak. The assay of the unstressed sample in FIG. 15A and FIG. 15B was used as a reference to calculate the extent of degradation of CBD under the representative stress conditions: Degradation of CBD=(1−[assay of stressed sample]/[assay unstressed sample])*100% […]
In a 20 ml GC headspace vial, 150 mg of CBD was suspended in 8 mL of 0.1 M sodium hydroxide and heated to T=80° C. for 2 h, 4 h and 6 h, respectively. […]

[6] = solvent 1,4-Dioxane, anti-solvent 2,2,4-Trimethylpentane
[7] = solvent 1,4-Dioxane, anti-solvent Water
[8] = solvent 2-Methoxyethanol, anti-solvent 2,2,4-Trimethylpentane
[9] = solvent 4-methyl-2-pentanone, anti-solvent 2,2,4-Trimethylpentane
[10] = solvent Acetonitrile, anti-solvent Water
[11] = solvent Ethyl acetate, anti-solvent 2,2,4-Trimethylpentane
[12] = solvent Isobutanol, anti-solvent Water
[13] = solvent Isopropanol, anti-solvent Water
[14] = solvent Tetrahydrofuran, anti-solvent Water
[15] = solvent Diethanolamine, anti-solvent Water
[16] = solvent Diethylene glycol, anti-solvent Water
[17] = solvent Dimethyl sulfoxide, anti-solvent Water

In the case of `C=C(C)[C@@H]1CCC(C)=C[C@H]1c1c(O)cc(CCCCC)cc1O` [CBD, (1′R,2′R)-5′-methyl-4-pentyl-2′-(prop-1-en-2-yl)-1′,2′,3′,4′-tetrahydro-[1,1′-biphenyl]-2,6-diol], the “Effect of accelerated aging conditions” value ([1]; AAC for 48 hours) is reported as “no effect on the crystallinity”, the “XRPD of solids precipitated upon cooling” value ([1]; from pentane and heptane, cooled to 0° C., 48 hours) is reported as “identical to starting material Form A” and the “Dissolved at initial T?” value ([1]; solvent 1,2-Dimethoxyethane) is reported as “Yes”. For the same compound, the “Solids after T profile” value ([1]; solvent 1,2-Dimethoxyethane) was “No”, the “Dissolved at initial T?” value ([1]; solvent 1,4-Dioxane) was “Yes” and the “Solids after T profile” value ([1]; solvent 1,4-Dioxane) was “No”. For the same compound, the “Dissolved at initial T?” value ([1]; solvent 2,2,4-Trimethylpentane) was “No”, the “Solids after T profile” value ([1]; solvent 2,2,4-Trimethylpentane) was “No” and the “Dissolved at initial T?” value ([1]; solvent Acetone) was “Yes”. For the same compound, the “Form by HT-XRPD Dry solids” value ([1]; solvent Acetone) was “Oily”, the “Solids after T profile” value ([1]; solvent Acetone) was “No” and the “Dissolved at initial T?” value ([1]; solvent Acetonitrile) was “Yes”. The “Form by HT-XRPD Dry solids” value ([1]; solvent Acetonitrile) was “Oily”, the “Solids after T profile” value ([1]; solvent Acetonitrile) was “No” and the “Dissolved at initial T?” value ([1]; solvent Chloroform) was “Yes”. For the same compound, the “Form by HT-XRPD Dry solids” value ([1]; solvent Chloroform) was “Oily”, the “Solids after T profile” value ([1]; solvent Chloroform) was “No” and the “Dissolved at initial T?” value ([1]; solvent Cyclohexane) was “Yes”. For the same compound, the “Solids after T profile” value ([1]; solvent Cyclohexane) was “No”, the “Dissolved at initial T?” value ([1]; solvent Diethylene glycol) was “Yes” and the “Form by HT-XRPD Dry solids” value ([1]; solvent Diethylene glycol) was “Oily”. For the same compound, the “Solids after T profile” value ([1]; solvent Diethylene glycol) was “No”, the “Dissolved at initial T?” value ([1]; solvent Ethanol) was “Yes” and the “Solids after T profile” value ([1]; solvent Ethanol) was “No”. The “Dissolved at initial T?” value ([1]; solvent Ethyl acetate) was “Yes”, the “Form by HT-XRPD Dry solids” value ([1]; solvent Ethyl acetate) was “Oily” and the “Solids after T profile” value ([1]; solvent Ethyl acetate) was “No”. The “Dissolved at initial T?” value ([1]; solvent Heptane) was “Yes”, the “Form by HT-XRPD Dry solids” value ([1]; solvent Heptane) was “Oily” and the “Solids after T profile” value ([1]; solvent Heptane) was “No”. For the same compound, the “Dissolved at initial T?” value ([1]; solvent Hexane) was “No”, the “Solids after T profile” value ([1]; solvent Hexane) was “Yes” and the “Dissolved at initial T?” value ([1]; solvent Pentane) was “No”. For the same compound, the “Solids after T profile” value ([1]; solvent Pentane) was “Yes”, the “Dissolved at initial T?” value ([1]; solvent Tetrahydrofuran) was “Yes” and the “Form by HT-XRPD Dry solids” value ([1]; solvent Tetrahydrofuran) was “Oily”. The “Solids after T profile” value ([1]; solvent Tetrahydrofuran) was “No”, the “Dissolved at initial T?” value ([1]; solvent Water) was “No” and the “Form by HT-XRPD Dry solids” value ([1]; solvent Water) was “Low yield”. For the same compound, the “Solids after T profile” value ([1]; solvent Water) was “No”, the “solubility temperature of CBD” value [2] was 29-30 °C and the “Effect of accelerated aging conditions” value [3] was “no effect on the physical appearance”. For the same compound, the “XRPD of solid after evaporation” value ([3]; Toluene/2,2,4-Trimethylepentane solution) was “Form A”, the “Precipitation?” value [3, 6] was “No” and the “Solid form after evaporation After AAC” value [3, 6] was “Oil”. For the same compound, the “Solid form after evaporation Before AAC” value [3, 6] was “Oil”, the “Precipitation?” value [3, 7] was “No” and the “Solid form after evaporation After AAC” value [3, 7] was “Oil”. The “Solid form after evaporation Before AAC” value [3, 7] was “Oil”, the “Precipitation?” value [3, 8] was “No” and the “Solid form after evaporation After AAC” value [3, 8] was “Oil”. For the same compound, the “Solid form after evaporation Before AAC” value [3, 8] was “Oil”, the “Precipitation?” value [3, 9] was “No” and the “Solid form after evaporation After AAC” value [3, 9] was “Oil”. The “Solid form after evaporation Before AAC” value [3, 9] was “Oil”, the “Precipitation?” value [3, 10] was “No” and the “Solid form after evaporation After AAC” value [3, 10] was “Oil”. For the same compound, the “Solid form after evaporation Before AAC” value [3, 10] was “Oil”, the “Precipitation?” value [3, 11] was “No” and the “Solid form after evaporation After AAC” value [3, 11] was “Oil”. The “Solid form after evaporation Before AAC” value [3, 11] was “Oil”, the “Precipitation?” value [3, 12] was “No” and the “Solid form after evaporation After AAC” value [3, 12] was “Oil”. The “Solid form after evaporation Before AAC” value [3, 12] was “Oil”, the “Precipitation?” value [3, 13] was “No” and the “Solid form after evaporation After AAC” value [3, 13] was “Oil”. For the same compound, the “Solid form after evaporation Before AAC” value [3, 13] was “Oil”, the “Precipitation?” value [3, 14] was “No” and the “Solid form after evaporation After AAC” value [3, 14] was “Oil”. The “Solid form after evaporation Before AAC” value [3, 14] was “Oil”, the “Precipitation?” value ([3]; solvent Toluene, anti-solvent 2,2,4-Trimethylpentane) was “No” and the “Effect of accelerated aging conditions” value ([4]; AAC for 2 days) was “no effect on the solid form”. The “Solid form by HT-XRPD Ambient After AAC” value [4, 7] was “oily”, the “Solid form by HT-XRPD Ambient Before AAC” value [4, 7] was “oily” and the “Solid form by HT-XRPD Vacuum” value [4, 7] was “Oily”. The “Solids after?” value [4, 7] was “No”, the “Solid form by HT-XRPD Vacuum” value [4, 15] was “Oily” and the “Solids after?” value [4, 15] was “Yes”. The “Solid form by HT-XRPD Vacuum” value [4, 16] was “Oily”, the “Solids after?” value [4, 16] was “Yes” and the “Solid form by HT-XRPD Vacuum” value [4, 17] was “Oily”. The “Solids after?” value [4, 17] was “Yes”, the “XRPD of crystalline precipitates” value ([4]; water as anti-solvent, except 1,4-dioxane, diethylene glycol, DMSO and diethanolamine) was “indicative of Form A” and the Appearance after stress ([5]; 0.1 M hydrochloric acid, 80° C., 2 h, 4 h and 6 h) was “suspension of yellowish melted CBD in a clear colorless aqueous solution”. The Appearance after stress ([5]; 0.1 M sodium hydroxide, 80° C., 2 h, 4 h and 6 h) was “suspension of yellowish melted CBD in a violet aqueous solution”, the Appearance after stress ([5]; 24 h at 75% r.h.) was “did not change its appearance” and the “Proposed main degradation products(s)” value ([5]; Acidic, 80° C.) was “D9-THC”. The “Degradation of CBD” value ([5]; Acidic, 6 h, 80° C. (0.1 M hydrochloric acid)) was 4%, the “Proposed main degradation products(s)” value ([5]; Alkaline stress) was “several isomers of CBQ” and the “Degradation of CBD” value ([5]; Alkaline stress, stock solution at the time of the LC-MS analysis) was greater than 80%. The “Proposed main degradation products(s)” value ([5]; Heat, 100° C. for 24 h) was “Hydroxy-CBD and Hydroxy-CBQ”, the “Degradation of CBD” value ([5]; Heat, 24 h, 100° C.) was 1% and the “Proposed main degradation products(s)” value ([5]; Humidity, 24 h, 24° C.) was “No prominent degradation product”. The “Degradation of CBD” value ([5]; Humidity, 24 h, 24° C. (75% r.h.)) was 0%, the “Degradation of CBD” value ([5]; Light, 24 h 24° C.) was 1% and the “Proposed main degradation products(s)” value ([5]; Light, 24 h 24° C.) was “No prominent degradation product”. The “Proposed main degradation products(s)” value ([5]; Oxidative stress (H2O2)) was “Hydroxy-CBD (CBD-OH)”, the “Degradation of CBD” value ([5]; Oxidative, 6 h 80° C. (hydrogen peroxide 0.3% w/w)) was 3% and the “Degradation of CBD” value ([5]; elevated temperatures lower than 100° C.) was “no significant degradation”. The Appearance after stress ([5]; heated to 50° C. and 60° C. for 1 hour) was “turned slightly yellow but did not change their physical condition”, the Appearance after stress ([5]; heated to 70° C. for one hour) was “partially melted” and the Appearance after stress ([5]; heated to 80° C. or higher) was “fully melted and exhibited a yellow color”. For the same compound, the Appearance after stress ([5]; hydrogen peroxide (0.3% w/w), 80° C., 2 h, 4 h and 6 h) was “suspension of yellowish melted CBD in a clear colorless aqueous solution” and the Appearance after stress ([5]; irradiated with light 24 h, 24° C.) was “turned slightly yellow”.
